Patent US7498336B2, “Deazaflavin compounds and methods of use thereof” (The United States of America as represented by the …, priority 2003, dated 2009)
Square brackets hold non-standard residues; d marks the D form. Peptide text beside a SMILES is read from it. Nle = CCCC[C@H](N)C(=O)O

Experiments:
[1] = test system: E1A-transformed RPE cells; assay: Apoptosis in E1A-transformed RPE cells; type: cell-based, human; details: FIG. 4 left
Source text: Cell-based assays include model systems where primary human epithelial cells (“normal cells”) are compared to the same cells expressing the adenovirus E1A oncogene (“transformed cells”). Activation of p53 was not toxic to normal cells, but activation of p53 in transformed cells induces p53-mediated apoptosis. High concentrations of wild type (wt) p53 protein can induce apoptosis in a variety of different tumor cells. Potential inhibitors of MDM2 would regulate the stability and function of p53 and MDM2. Preferably the assays measure number of cells undergoing apoptosis due to MDM2 induced p53 degradation in tumor cells in the presence or absence of candidate compounds as compared to normal cells in the presence or absence of candidate compounds. An increase in the number of these cells undergoing apoptosis in the presence of candidate compounds in tumor cells, as compared to normal untreated cells is indicative of a potential anti-tumor compound. […]
Apoptosis and cell death were determined by FACS analysis of sub-G1 nuclei or counting trypan blue-positive cells under microscope. Caspase activity was measured using fluorogenic substrate Ac-DEVD-AFC and CytoFluor multi-well plate reader (PerSeptive Biosystems). […]

[2] = test system: Normal human fibroblast MRC-5; assay: Cell based assay for accumulation of MDM2 and p53 (immunoblot); details: MRC-5 cells; for MDM2 level / p53 level: 50 μM, 8 hours
Protocol: Methods: Normal human fibroblast MRC-5 were chosen to determine whether the compounds from the high throughput screening can inhibit the E3 activity of Mdm2, i.e. stabilizing MDM2 and p53 in vivo. After being seeded in 12-well tissue culture cluster overnight, the cells were treated with 50 μM of the compounds for 8 hours. They were harvested with trypsin-EDTA, washed with PBS, and lysed with RIPA buffer. Following removal of insoluble pellet by centrifugation for 20 minutes at 10000 rpm, the lysate was separated on 4-20% gradient SDS-polyacrylamide gel and transferred onto nitrocellulose membrane. The membrane was then blotted with anti-p53 antibody (DO-1), anti-MDM2 antibodies (Ab-1 and Ab-2), anti-p27 (Santa Cruz), anti-Nedd4, and anti-p21Waf1 antibody. After extensive washing with PBS containing 0.5% Triton X-100, it was incubated with HRP-labeled donkey anti-mouse antibody and visualized using enhanced chemiluminescence.

[3] = target: T1, GST-MDM2 (Homo sapiens, UniProt Q00987); assay: Standard MDM2 in vitro ubiquitination assay (E1+E2+E3), SDS-PAGE gel; type: biochemical; details: FIG. 2A, 2F
T1 construct: made in house
Protocol: a. “Standard MDM2 in vitro Ubiguitination Assay” (E1+E2+E3 Assay)
1 pmole per experimental point of bacterially expressed GST-MDM2 (or GST-Nedd) was coupled to glutathione Sepharose (GS) for 30 minutes at room temperature with tumbling, followed by 3× wash with 50 mM Tris pH 7.5. Following this, 20 μl of 1× buffer was added (40 μl 10× reaction buffer*, 40 μl 10× PCK**, 320 μl dH2O). The test compound in DMSO is then added to the desired concentration with an equal volume of DMSO used as a control. Samples are incubated with shaking for 1 hr at 23° C. […] The reaction is terminated by addition of 8 μl 4× reducing SDS-PAGE loading buffer. After dissociating proteins from the beads at 100° C. for 2 minutes, samples are resolved on 6% PAGE followed by exposure of the dried gel to phosphor screen. Note: ^32P Ub is derived from GST-Ub that has been engineered to include a PKA phosphorylation site. This fusion protein is purified on glutathione Sepharose, phosphorylated, following this, the ^32P Ub ubiquitin is cleaved and purified away from the thrombin.
• 500 mM Tris (pH 7.5) • 2 mM ATP • 5 mM MgCl2 • 1 mM DTT • 10 mM creatine phosphate (Sigma P4635) (45 mg/10 ml). **10× PCK • Sigma C7886, 1000 U, reconstitute in 200 μl 10 mM Tris pH 8.0.

[4] = target: T2, p53 pre-bound to GST-MDM2 (Homo sapiens, UniProt Q00987); assay: In vitro p53 ubiquitination assay; type: biochemical; details: cellular p53 pre-bound to GST-MDM2, FIG. 2G
T2 construct: made in house; host or cells: GST-MDM2: bacteria; p53: SaOS-p53 inducible cells
Protocol: d. In Vitro R53 Ubiguitination Assay
p53 protein from SaOS-p53 inducible cell lysate was purified from cells using GST-MDM2 (5 pmol) pre-bound to GS beads. Samples were then incubated with test compounds as above. Subsequently 2 μl rabbit E1, 1 μl UbcH5b, and 10 μg of ubiquitin were added. After reaction for 15 min at 23° C., samples were subject to SDS-PAGE under reducing conditions, transferred to nitrocellulose membranes and immunoblotted with anti-p53 (DO-1) followed by ECL using standard techniques.

[5] = target: T3, rabbit E1 (Oryctolagus cuniculus, UniProt Q29504); assay: E1 only assay (thiol-ester linkage of ubiquitin with E1); type: biochemical; details: FIG. 2D
T3 construct: purchased Calbiochem 6620700
T3 sequence (Q29504 1-1058): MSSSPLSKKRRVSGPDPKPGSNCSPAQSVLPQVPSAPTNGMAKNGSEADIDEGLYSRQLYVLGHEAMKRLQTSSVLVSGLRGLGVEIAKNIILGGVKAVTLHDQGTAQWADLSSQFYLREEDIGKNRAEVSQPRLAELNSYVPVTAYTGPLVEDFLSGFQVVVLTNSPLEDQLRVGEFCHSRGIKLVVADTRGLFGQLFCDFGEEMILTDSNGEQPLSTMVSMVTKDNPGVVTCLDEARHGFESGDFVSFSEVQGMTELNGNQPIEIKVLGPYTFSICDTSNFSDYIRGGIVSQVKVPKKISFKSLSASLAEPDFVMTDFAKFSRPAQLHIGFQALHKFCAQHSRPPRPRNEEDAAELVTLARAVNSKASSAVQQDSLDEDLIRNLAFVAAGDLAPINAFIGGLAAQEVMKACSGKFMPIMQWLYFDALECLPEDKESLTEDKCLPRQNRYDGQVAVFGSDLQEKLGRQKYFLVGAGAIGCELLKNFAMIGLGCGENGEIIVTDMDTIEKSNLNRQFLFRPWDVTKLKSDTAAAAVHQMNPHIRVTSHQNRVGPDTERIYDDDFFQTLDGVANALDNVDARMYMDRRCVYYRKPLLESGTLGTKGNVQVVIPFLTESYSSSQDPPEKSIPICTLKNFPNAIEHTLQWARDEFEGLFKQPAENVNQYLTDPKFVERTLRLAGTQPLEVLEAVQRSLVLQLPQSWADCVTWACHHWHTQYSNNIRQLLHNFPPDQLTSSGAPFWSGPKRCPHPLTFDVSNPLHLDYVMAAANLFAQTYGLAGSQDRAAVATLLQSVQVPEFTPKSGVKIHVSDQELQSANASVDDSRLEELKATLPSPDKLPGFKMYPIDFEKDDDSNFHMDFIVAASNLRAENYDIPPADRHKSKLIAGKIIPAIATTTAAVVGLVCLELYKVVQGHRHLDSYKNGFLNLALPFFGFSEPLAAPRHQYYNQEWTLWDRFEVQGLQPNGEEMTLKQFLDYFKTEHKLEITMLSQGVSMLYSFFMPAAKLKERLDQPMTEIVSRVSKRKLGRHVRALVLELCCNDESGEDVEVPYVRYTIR
Protocol: 2 μl rabbit E1 +12 μl of 1× reaction buffer are mixed together with the test compound followed by addition of 1 μl of ^32P Ub is added for 10 minutes at room temperature followed by resolution by SDS-PAGE under non-reducing conditions to maintain thiol-ester linkages and exposure as above.

[6] = target: T4, Nedd4 (Homo sapiens, UniProt P46934); assay: In vitro ubiquitination assay (E1+E2+E3) with unrelated E3 ligase; type: biochemical; details: gel assay, FIG. 2B, 2C
T4 construct: made in house
T4 sequence (P46934 1-1319): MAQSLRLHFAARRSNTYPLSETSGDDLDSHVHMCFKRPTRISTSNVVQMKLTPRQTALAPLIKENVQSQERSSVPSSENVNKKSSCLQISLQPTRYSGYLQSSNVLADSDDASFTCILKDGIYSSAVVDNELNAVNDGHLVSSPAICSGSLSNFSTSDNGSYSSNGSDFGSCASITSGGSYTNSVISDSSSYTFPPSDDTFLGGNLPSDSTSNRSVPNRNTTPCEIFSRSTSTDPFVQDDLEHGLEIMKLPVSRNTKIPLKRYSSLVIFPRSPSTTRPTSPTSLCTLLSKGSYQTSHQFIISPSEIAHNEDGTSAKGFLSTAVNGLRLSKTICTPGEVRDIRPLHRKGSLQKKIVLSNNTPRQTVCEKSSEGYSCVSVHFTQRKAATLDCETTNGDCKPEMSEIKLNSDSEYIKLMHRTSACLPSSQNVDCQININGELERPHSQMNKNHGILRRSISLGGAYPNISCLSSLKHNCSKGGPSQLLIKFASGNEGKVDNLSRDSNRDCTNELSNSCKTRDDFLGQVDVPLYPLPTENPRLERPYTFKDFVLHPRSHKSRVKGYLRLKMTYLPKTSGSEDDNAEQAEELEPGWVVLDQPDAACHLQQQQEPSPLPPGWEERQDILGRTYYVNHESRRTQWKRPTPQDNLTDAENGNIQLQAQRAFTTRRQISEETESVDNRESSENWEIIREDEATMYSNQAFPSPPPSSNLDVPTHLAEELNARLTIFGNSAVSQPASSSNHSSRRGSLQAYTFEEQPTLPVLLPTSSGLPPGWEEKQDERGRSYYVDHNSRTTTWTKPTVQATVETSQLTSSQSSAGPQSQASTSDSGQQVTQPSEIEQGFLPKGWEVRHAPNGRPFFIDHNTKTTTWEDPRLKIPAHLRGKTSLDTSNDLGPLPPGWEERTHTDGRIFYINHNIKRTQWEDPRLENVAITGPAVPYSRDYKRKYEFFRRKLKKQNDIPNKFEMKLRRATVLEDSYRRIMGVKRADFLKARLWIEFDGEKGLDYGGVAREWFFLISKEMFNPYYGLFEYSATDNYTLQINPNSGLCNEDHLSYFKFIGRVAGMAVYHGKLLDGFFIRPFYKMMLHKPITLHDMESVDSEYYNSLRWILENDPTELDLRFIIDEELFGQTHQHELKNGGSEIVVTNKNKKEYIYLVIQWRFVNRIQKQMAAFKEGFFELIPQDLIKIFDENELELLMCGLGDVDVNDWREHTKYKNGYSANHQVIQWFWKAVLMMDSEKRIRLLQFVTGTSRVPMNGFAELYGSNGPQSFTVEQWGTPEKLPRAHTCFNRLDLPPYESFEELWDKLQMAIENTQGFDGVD
Protocol: 1 pmole per experimental point of bacterially expressed GST-MDM2 (or GST-Nedd) was coupled to glutathione Sepharose (GS) for 30 minutes at room temperature with tumbling, followed by 3× wash with 50 mM Tris pH 7.5. Following this, 20 μl of 1× buffer was added (40 μl 10× reaction buffer*, 40 μl 10× PCK**, 320 μl dH2O). The test compound in DMSO is then added to the desired concentration with an equal volume of DMSO used as a control. Samples are incubated with shaking for 1 hr at 23° C. To carry out the reaction, a pre-made cocktail of Rabbit E1 (Calbiochem #6620700)/UbcH5B/^32P Ub cocktail (1 μl/0.5 μl/1 μl) is added followed by 15 minutes shaking at 30° C. The reaction is terminated by addition of 8 μl 4× reducing SDS-PAGE loading buffer. After dissociating proteins from the beads at 100° C. for 2 minutes, samples are resolved on 6% PAGE followed by exposure of the dried gel to phosphor screen. Note: ^32P Ub is derived from GST-Ub that has been engineered to include a PKA phosphorylation site. This fusion protein is purified on glutathione Sepharose, phosphorylated, following this, the ^32P Ub ubiquitin is cleaved and purified away from the thrombin.

T1 sequence (Q00987 whole entry): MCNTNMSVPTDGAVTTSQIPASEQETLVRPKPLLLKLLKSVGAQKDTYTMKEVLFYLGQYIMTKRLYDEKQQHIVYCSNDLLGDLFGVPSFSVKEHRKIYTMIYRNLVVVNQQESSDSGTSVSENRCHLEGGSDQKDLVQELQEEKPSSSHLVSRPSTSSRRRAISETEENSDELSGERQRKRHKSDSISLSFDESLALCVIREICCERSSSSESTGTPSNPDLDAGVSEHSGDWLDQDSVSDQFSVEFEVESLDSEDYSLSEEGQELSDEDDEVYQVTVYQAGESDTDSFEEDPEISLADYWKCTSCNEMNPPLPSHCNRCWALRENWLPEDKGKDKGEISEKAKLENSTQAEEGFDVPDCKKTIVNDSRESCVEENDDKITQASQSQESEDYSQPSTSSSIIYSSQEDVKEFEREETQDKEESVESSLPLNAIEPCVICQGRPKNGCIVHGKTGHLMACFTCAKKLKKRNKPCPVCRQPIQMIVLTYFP
T2 sequence (Q00987 whole entry): as above
T2 sequence (P04637 whole entry partner): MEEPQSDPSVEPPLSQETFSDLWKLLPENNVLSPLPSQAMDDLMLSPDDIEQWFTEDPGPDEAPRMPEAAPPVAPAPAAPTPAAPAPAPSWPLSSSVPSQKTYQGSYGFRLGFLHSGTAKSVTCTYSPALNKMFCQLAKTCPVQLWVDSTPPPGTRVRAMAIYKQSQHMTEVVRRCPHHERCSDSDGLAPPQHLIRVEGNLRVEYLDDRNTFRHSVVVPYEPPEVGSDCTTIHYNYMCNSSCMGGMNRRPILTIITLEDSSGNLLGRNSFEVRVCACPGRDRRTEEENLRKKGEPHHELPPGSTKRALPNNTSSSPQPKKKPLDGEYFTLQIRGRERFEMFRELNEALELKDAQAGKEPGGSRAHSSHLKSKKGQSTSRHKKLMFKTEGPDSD

inhibition of MDM2 E3 ligase (auto-ubiquitination) [3]	inhibition of thiol-ester linkage of ubiquitin with E1 [5]	selectivity of inhibition of MDM2 versus unrelated E3 ligase Nedd4 [6]	SMILES	apoptosis [1]	MDM2 level [2]	p53 level [2]	p21 level ([2]; FIG. 3C)	inhibition of p53 ubiquitination by MDM2 [4]
			CCCC[C@@H](C=O)NC(=O)[C@H](CC(C)C)NC(=O)[C@H](CC(C)C)NC(C)=O [LLNL, reference compound] (Ac-Leu-Leu-[Nle]-aldehyde)	markedly increased apoptosis	accumulated MDM2, p53, and p21	accumulated MDM2, p53, and p21	accumulated MDM2, p53, and p21	
inhibition of MDM2 auto-ubiquitination			Cc1ccc(-n2c3nc(=O)[nH]c(=O)c-3cc3cc([N+](=O)[O-])ccc32)cc1 [Compound 98E07, 10-(-4-methyl-phenyl)-7-nitro-10H-pyrimido[4,5-b]quinoline-2,4-dione]		specifically increase MDM2 and p53	specifically increase MDM2 and p53		
inhibition of MDM2 auto-ubiquitination			O=c1nc2n(-c3ccc(Cl)cc3)c3ccc([N+](=O)[O-])cc3cc-2c(=O)[nH]1 [Compound 98D07, 10-(-4-chloro-phenyl)-7-nitro-10H-pyrimido[4,5-b]quinoline-2,4-dione]		specifically increase MDM2 and p53	specifically increase MDM2 and p53		significant dose-dependent inhibition of p53 ubiquitination
	block the activity of the E1 enzyme	inhibits all E3s	O=c1nc2n(-c3ccc(Cl)cc3)c3ccc([N+](=O)[O-])cc3cc-2c(=O)[nH]1 [Compound 97H10, 10-(4-chloro-phenyl)-7-nitro-10H-pyrimido[4,5-b]quinoline-2,4-dione]					
